Read-outs that look alike come from different tables or passages of the source. Marks after values point to notes of the source that are not given here.
Tests used:
Tadpole = Tadpole loss of righting (LRR) and loss of swimming (LSR) reflexes; format: in vivo; conditions: for tadpoles that lost LRR / tadpoles that lost LSR: concentration of 3 μM, number of 10 tadpoles; for EC50: ± SEM
From the text: Table 3 discloses the anesthetic effects of the compounds of the present disclosure. In particular, the anesthetic effect of the compounds of the present disclosure on Loss of Righting Reflex (LRR) and Loss of Swimming Reflex (LSR).
Methods used are known in the art (see, e.g., Jiang, et al., Neurosteroid analogues. 9. Conformationally constrained pregnanes: structure-activity studies of 13,24-cyclo-18,21-dinorcholane analogues of the GABA modulatory and anesthetic steroids (3α,5α)- and (3α,5β)-3-hydroxypregnan-20-one. J. Med. Chem. 2003, 46, 5334-5348). Error limits are calculated as standard error of the mean (N=10 or more animals at each of five or more different concentrations).

[1] = target: picrotoxin binding site on GABAA receptors; test: [35S]-TBPS displacement (inhibition of [35S]-TBPS binding); conditions: non-competitive displacement of [35S]-TBPS; ± standard error of the mean
Experimental: The IC50 values for the compounds of the examples as non-competitive displacers of [^35S]-TBPS from the picrotoxin binding site on GABAA receptors are reported in Table 1.
Results presented are from duplicate experiments performed in triplicate. Error limits are calculated as standard error of the mean. Methods used are known in the art (see, e.g., Jiang, et al., Neurosteroid analogues. 9. Conformationally constrained pregnanes: structure-activity studies of 13,24-cyclo-18,21-dinorcholane analogues of the GABA modulatory and anesthetic steroids (3α,5α)- and (3α,5β)-3-hydroxypregnan-20-one. J. Med. Chem. 2003, 46, 5334-5348).

[2] = target: T1, rat α1β2γ2L type GABAA receptors expressed in Xenopus laevis oocytes (Rattus norvegicus, UniProt P18508+P62813+P63138, INS375LLRMFSFK); test: Oocyte electrophysiology: potentiation of chloride currents mediated by 2 μM GABA, and direct gating; format: cell-based; conditions: ± SEM (N≥4); for ratio of currents measured in the presence/absence of added compound, 0.1 μM: 0.1 μM compound; for ratio of currents measured in the presence/absence of added compound, 0.1 μM / ratio of currents measured in the presence/absence of added compound, 1.0 μM / ratio of currents measured in the presence/absence of added compound, 10 μM: 2 μM GABA; for ratio of currents measured in the presence/absence of added compound, 1.0 μM: 1.0 μM compound; for ratio of currents measured in the presence/absence of added compound, 10 μM: 10 μM compound; for (gating) 10 μM: ratio of compound only current/GABA current: direct current gated by 10 μM compound in the absence of GABA
T1 construct: expressed in transfected cells; host or cells: Xenopus laevis oocytes
Experimental: The compounds of the present disclosure were evaluated for the ability to potentiate chloride currents mediated by 2 μM GABA at rat α1β2γ2L type GABAA receptors expressed in Xenopus laevis oocytes and the results are shown in Table 2.
The GABA concentration used for the control response was 2 μM. Each compound was evaluated on at least four different oocytes at the concentrations indicated, and the results reported are the ratio of currents measured in the presence/absence of added compound. Gating represents direct current gated by 10 μM compound in the absence of GABA, and this current is reported as the ratio of compound only current/[…] current. Error limits are calculated as standard error of the mean (N≥4). Receptor expression and whole-cell and single-channel recordings were carried out as described previously (see Jiang, et al., Neurosteroid analogues. 9. Conformationally constrained pregnanes: structure-activity studies of 13,24-cyclo-18,21-dinorcholane analogues of the GABA modulatory and anesthetic steroids (3α,5α)- and (3α,5β)-3-hydroxypregnan-20-one. J. Med. Chem. 2003, 46, 5334-5348).

[3] = loss of righting reflex, read-out: Tadpole LRR EC50
[4] = loss of swimming reflex, read-out: Tadpole LSR EC50

T1 sequence (P62813 28-455, stated change not applied): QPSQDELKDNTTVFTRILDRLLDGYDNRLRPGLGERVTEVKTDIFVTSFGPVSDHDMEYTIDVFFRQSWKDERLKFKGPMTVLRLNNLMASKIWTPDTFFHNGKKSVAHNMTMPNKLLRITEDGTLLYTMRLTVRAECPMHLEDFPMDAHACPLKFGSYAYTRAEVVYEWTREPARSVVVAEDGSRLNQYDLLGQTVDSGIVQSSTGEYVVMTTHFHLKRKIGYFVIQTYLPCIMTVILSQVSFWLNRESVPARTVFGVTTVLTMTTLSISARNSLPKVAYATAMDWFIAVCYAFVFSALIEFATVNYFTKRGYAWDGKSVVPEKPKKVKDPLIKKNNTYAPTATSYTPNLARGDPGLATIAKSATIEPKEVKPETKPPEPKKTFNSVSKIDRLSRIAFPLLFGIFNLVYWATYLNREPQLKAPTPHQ
T1 sequence (P63138 26-474, stated change not applied): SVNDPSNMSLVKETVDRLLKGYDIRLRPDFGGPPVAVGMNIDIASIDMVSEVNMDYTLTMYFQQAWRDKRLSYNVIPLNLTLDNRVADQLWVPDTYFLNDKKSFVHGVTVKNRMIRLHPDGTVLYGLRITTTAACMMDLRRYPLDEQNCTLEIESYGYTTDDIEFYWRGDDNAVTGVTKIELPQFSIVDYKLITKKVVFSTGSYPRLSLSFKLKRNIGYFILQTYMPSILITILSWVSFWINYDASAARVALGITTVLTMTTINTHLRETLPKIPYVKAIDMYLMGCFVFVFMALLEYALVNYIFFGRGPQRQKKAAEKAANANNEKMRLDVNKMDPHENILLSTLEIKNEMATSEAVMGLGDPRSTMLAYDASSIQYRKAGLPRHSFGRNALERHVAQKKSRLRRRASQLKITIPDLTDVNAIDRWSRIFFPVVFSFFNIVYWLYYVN
T1 sequence (P18508 with tags, fused parts or gaps INS375LLRMFSFK): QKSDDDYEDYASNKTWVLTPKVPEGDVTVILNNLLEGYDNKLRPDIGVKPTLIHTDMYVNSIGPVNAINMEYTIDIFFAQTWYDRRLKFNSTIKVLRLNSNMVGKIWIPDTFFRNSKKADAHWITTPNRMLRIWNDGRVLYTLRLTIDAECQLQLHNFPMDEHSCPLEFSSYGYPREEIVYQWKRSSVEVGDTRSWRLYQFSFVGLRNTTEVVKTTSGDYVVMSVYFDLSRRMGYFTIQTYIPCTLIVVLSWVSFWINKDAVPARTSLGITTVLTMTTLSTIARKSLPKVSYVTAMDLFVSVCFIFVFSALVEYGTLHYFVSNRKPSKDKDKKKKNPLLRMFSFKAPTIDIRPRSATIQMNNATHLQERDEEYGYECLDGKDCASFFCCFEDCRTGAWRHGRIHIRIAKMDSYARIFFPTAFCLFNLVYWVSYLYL

| SMILES | tadpoles that lost LRR (Tadpole) | tadpoles that lost LSR (Tadpole) | melting point | IC50 [1] | ratio of currents measured in the presence/absence of added compound, 0.1 μM [2] | ratio of currents measured in the presence/absence of added compound, 1.0 μM [2] | ratio of currents measured in the presence/absence of added compound, 10 μM [2] | (gating) 10 μM: ratio of compound only current/GABA current [2] | EC50 (Tadpole; [3]) | EC50 (Tadpole; [4]) |
| --- | --- | --- | --- | --- | --- | --- | --- | --- | --- | --- |
| CC(=O)[C@@H]1C[C@@H]2[C@H]3CC[C@@H]4C[C@@H](O)CC[C@@]4(C)[C@@H]3CC[C@@]2(C)C1 [KK-135, (3β,5β,8α,9β,10α,13α,14β,16α)-16-Acetylandrostan-3-ol] | 10/10^a | 10/10^a | 169 to 172 °C | 184 ± 11 nM | 1.17 ± 0.09 | 3.26 ± 0.31 | 6.21 ± 0.31 | −0.04 ± 0.06 |  |  |
| C[C@@]12CC[C@@H]3[C@H](CC[C@@H]4C[C@@H](O)CC[C@]43C)[C@H]1CC(=CC#N)C2 [KK-138, 2-[(3β,5β,8α,9β,10α,13α,14β)-3-Hydroxyandrostan-16-ylidene]-acetonitrile] |  |  | 162 to 172 °C | 32 ± 3 nM | 1.63 ± 0.23 | 5.87 ± 1.65 | 10.16 ± 3.18 | 0.14 ± 0.06 | 140 nM | 870 nM |
| C[C@@]12CC[C@H]3[C@@H]4CC[C@H](O)C[C@@H]4CC[C@@H]3[C@H]1CC(=O)C2 [KK-102] |  |  | 139 to 142 °C | 146 ± 18 nM | 1.20 ± 0.02 | 4.23 ± 0.24 | 13.91 ± 1.38 | 0.04 ± 0.0 | 1210 ± 420 nM | 5480 ± 120 nM |
| C[C@@]12CC[C@@H]3[C@H](CC[C@H]4C[C@@H](O)CC[C@]43C)[C@H]1C[C@@H](C#N)C2 [KK-137, (3β,5α,8α,9β,10α,13α,14β,16α)-3-Hydroxyandrost-16-carbonitrile] |  |  | 155 to 157 °C | 22 ± 4 nM | 2.32 ± 0.17 | 7.08 ± 0.54 | 10.17 ± 0.68 | −0.04 ± 0.08 | 130 nM | 550 ± 10 nM |
| C[C@@]12CC[C@H](O)C[C@@H]1CC[C@H]1[C@H]2CC[C@@]2(C)C=C(C#N)C[C@H]12 [KK-136, (3β,5α,8α,9β,10α,13α,14β)-3-Hydroxyandrost-16-ene-16-carbonitrile] |  |  | 195 to 197 °C | 335 ± 27 nM | 0.98 ± 0.02 | 1.98 ± 0.14 | 10.04 ± 1.26 | 0.29 ± 0.25 | 480 ± 20 nM | 1730 ± 30 nM |
| CO[C@@H]1C[C@@H]2[C@H]3C[C@H](OC)[C@@H]4C[C@@H](O)CC[C@@]4(C)[C@@H]3CC[C@@]2(C)C1 [MQ-125, (3β,5β,6α,8α,9β,10α,13α,14β,16α)-6,16-Dimethoxyandrostan3-ol] | 10/10^a | 10/10^a | 127 to 129 °C | 121 ± 10 nM | 1.19 ± 0.18 | 5.02 ± 0.40 | 14.08 ± 2.23 | 0.43 ± 0.41 |  |  |
| C[C@@]12CC[C@@H]3[C@H](CC[C@H]4C[C@@H](O)CC[C@]43C)[C@H]1CC(=O)C2 [KK-97, (3β,5α,8α,9β,10α,13α,14β)-3-Hydroxyandrostan-16-one] |  |  | 132 to 134 °C | 112 ± 7 nM | 1.75 ± 0.24 | 6.15 ± 0.41 | 30.62 ± 2.14 | 0.16 ± 0.04 | 490 ± 110 nM | 1730 ± 30 nM |
| C[C@@]12CC[C@H](O)C[C@H]1CC[C@@H]1[C@H]3CC(=O)C[C@@H]3CC[C@H]12 [KK-114] |  |  | 174 to 177 °C | 1520 nM | 0.93 ± 0.02 | 1.13 ± 0.02 | 3.56 ± 0.15 | 0.01 ± 0.02 | 3640 ± 2170 nM | > 10000 nM |
| C[C@]1(O)CC[C@]2(C)[C@@H](CC[C@H]3[C@H]2CC[C@@]2(C)C(=O)CC[C@H]32)C1 [KK-26, (3β,5α,8α,9β,10α,13α,14β)-3-Hydroxy-3-methylandrostan-17-one] |  |  |  | 290 ± 33 nM | 1.38 ± 0.10 | 5.10 ± 0.64 | 23.74 ± 2.88 | 0.49 ± 0.18 | 1880 nM | 5480 ± 200 nM |
| CO[C@@H]1C[C@@H]2[C@H]3CC[C@@H]4C[C@@H](O)CC[C@@]4(C)[C@@H]3CC[C@@]2(C)C1 [KK-134, (3β,5β,8α,9β,10α,13α,14β,16α)-16-Methoxyandrostan-3-ol] | 10/10^a | 10/10^a | 169 to 171 °C | 92 ± 9 nM | 1.16 ± 0.07 | 5.22 ± 1.09 | 8.27 ± 1.27 | 0.04 ± 0.05 |  |  |
| O=C1C[C@@H]2CC[C@@H]3[C@H](CC[C@@H]4C[C@@H](O)CC[C@H]43)[C@H]2C1 |  |  | 168 to 169 °C |  |  |  |  |  |  |  |
| CO[C@H]1CC[C@]2(C)CC[C@@H]3[C@H](CC[C@@H]4C[C@@H](O)CC[C@]43C)[C@@H]12 [MQ-117, (3β,5β,8α,9β,10α,13α,14β,15α)-15-Methxoyandrostan-3-ol] |  |  | 137 to 139 °C | 19 ± 8 nM | 3.43 ± 0.29 | 11.10 ± 1.16 | 26.20 ± 2.91 | 0.06 ± 0.02 | 79 ± 3 nM | 330 nM |
| C[C@@]12CC[C@H](O)C[C@H]1CC[C@H]1[C@H]2CC[C@@]2(C)C=C(C#N)C[C@H]12 [KK-141, (3β,5β,8α,9β,10α,13α,14β)-3-Hydroxyandrost-16-ene-16-carbonitrile] | 5/10^b | 0/10^c | 247 to 249 °C | 154 ± 19 nM | 1.08 ± 0.11 | 1.35 ± 0.08 | 1.58 ± 0.13 | 0.08 ± 0.06 |  |  |
| C[C@@]12CC[C@H]3[C@@H]4CC[C@H](O)C[C@H]4CC[C@@H]3[C@H]1CCC2=O [KK-18, (3β,5β,8α,9β,10α,13α,14β)-3-Hydroxyestran-17-one] |  |  |  | 627 ± 100 nM | 1.07 ± 0.05 | 1.64 ± 0.11 | 9.34 ± 1.36 | 0.13 ± 0.12 | 3200 ± 2030 nM | > 10000 nM |
